From US20240279278A1, “NMU RECEPTOR 2 AGONISTS” (Boehringer Ingelheim International GmbH, priority 2023, published 2024) come the findings set out here.

Holding throughout (type): cell-based
Experiment [1] concerns the target T1, human NMUR1 receptor (Homo sapiens, UniProt Q9HB89).
T1 construct: expressed in transfected cells; host or cells: CHO-K1
T1 sequence (Q9HB89 1-426): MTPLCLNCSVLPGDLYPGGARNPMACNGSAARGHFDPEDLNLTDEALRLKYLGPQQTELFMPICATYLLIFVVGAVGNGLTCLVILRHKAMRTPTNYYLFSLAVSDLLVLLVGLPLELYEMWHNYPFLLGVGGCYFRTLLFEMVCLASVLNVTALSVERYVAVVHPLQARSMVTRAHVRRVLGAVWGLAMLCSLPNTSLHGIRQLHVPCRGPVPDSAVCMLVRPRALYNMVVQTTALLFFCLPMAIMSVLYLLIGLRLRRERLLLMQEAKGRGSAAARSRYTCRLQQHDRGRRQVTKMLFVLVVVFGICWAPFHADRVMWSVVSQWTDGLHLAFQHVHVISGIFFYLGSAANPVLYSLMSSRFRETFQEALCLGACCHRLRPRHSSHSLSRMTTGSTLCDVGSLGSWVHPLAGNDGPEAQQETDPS
The experiment is described as follows: IP1 Gq HTRF assay, activation of human NMUR1 in buffer. The settings on record: CHO-K1 cells expressing human NMUR1, stimulation buffer with 0.1% BSA; read-out: EC50 (hNMUR1) buffer. In outline:
(§1)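 CHO-K1 cells stably expressing human NMUR1 or NMUR2, seeded 24 h before assay, stimulated with peptide agonists (8-point dose-response, 1% DMSO final) in HEPES/HBSS buffer with 50 mM LiCl and 0.1% BSA, pH 7.4, 1 h at 37 °C. IP1 accumulation read by HTRF competition (665/620 nm); EC50 from 4-parameter sigmoidal fit.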
A general note: TR-FRET usually uses a lanthanide donor and a delayed reading to cut background.

The target in experiment [2] is T2, human NMUR2 receptor (Homo sapiens, UniProt Q9GZQ4). Nature of the experiment: IP1 Gq HTRF assay, activation of human NMUR2 in buffer. On the set-up: expressed in transfected cells; host or cells: CHO-K1. The settings on record: CHO-K1 cells expressing human NMUR2, stimulation buffer with 0.1% BSA; read-out: EC50 (hNMUR2) buffer. A digest of the protocol:
as §1

For experiment [3], the target named is T2, human NMUR2 receptor. The experiment is described as follows: IP1 Gq HTRF assay, activation of human NMUR2 in human plasma. Details: expressed in transfected cells; host or cells: CHO-K1. The settings on record: CHO-K1 cells expressing human NMUR2, 100% human plasma; read-out: EC50 (hNMUR2) human plasma. In outline:
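CHO-K1 cells stably expressing human NMUR2 exposed to peptide agonists (8-point dose-response) in 100% human plasma with 50 mM LiCl, 1% DMSO, for 1 h at 37° C. IP1 accumulation read by HTRF competition (665/620 nm ratio). EC50 from 4-parameter sigmoidal fit.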

Starred links: 1 amine or outer side, 2 acyl side, 3 side chain; linkers in the order of their positions; H or OH if unused. Non-standard residues stand in square brackets, D forms with d. Residues, ends and D or L forms follow the SMILES beside them. *: point of attachment. Pipz(1-CH2CO,4-CH2CH2NH) = O=C(CN1CCN(CCN[*:1])CC1)[*:2]; C18 diacid = O=C(O)CCCCCCCCCCCCCCCCC(=O)*; γGlu = O=C(O)[C@H](CCC(=O)[*:2])N[*:1]; 2Pal = N[C@@H](Cc1ccccn1)C(=O)O; 3Pal = N[C@@H](Cc1cccnc1)C(=O)O; NMeL = CN[C@@H](CC(C)C)C(=O)O; Nle = CCCC[C@H](N)C(=O)O; Sar = CNCC(=O)O Where only a bound is given, the exact number is not on record here.

T2 sequence (Q9GZQ4 whole entry): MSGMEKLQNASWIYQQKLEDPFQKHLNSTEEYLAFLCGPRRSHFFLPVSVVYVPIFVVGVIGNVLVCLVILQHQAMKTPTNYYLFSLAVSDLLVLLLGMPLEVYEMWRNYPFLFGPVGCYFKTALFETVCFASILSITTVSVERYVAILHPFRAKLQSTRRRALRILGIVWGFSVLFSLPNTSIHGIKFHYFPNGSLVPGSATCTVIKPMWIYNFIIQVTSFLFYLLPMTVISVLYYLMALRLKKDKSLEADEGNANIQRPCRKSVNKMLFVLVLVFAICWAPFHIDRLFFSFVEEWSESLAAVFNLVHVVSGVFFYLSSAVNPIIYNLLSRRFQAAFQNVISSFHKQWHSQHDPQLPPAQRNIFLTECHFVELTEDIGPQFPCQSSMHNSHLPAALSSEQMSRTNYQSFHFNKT

In the case of `CCCC[C@H](NC(=O)[C@H](CC(C)C)N(C)C(=O)[C@H](Cc1ccccc1)NC(=O)[C@H](Cc1ccc(O)cc1)NC(=O)CN1CCN(CCNC(=O)CN(C)C(=O)CN(C)C(=O)CN(C)C(=O)CN(C)C(=O)CN(C)C(=O)CN(C)C(=O)CN(C)C(=O)CN(C)C(=O)CN(C)C(=O)CN(C)C(=O)CN(C)C(=O)CN(C)C(=O)CN(C)C(=O)CN(C)C(=O)CN(C)C(=O)CC[C@H](NC(=O)CC[C@H](NC(=O)CC[C@H](NC(=O)CCCCCCCCCCCCCCCCCCC(=O)O)C(=O)O)C(=O)O)C(=O)O)CC1)C(=O)N[C@@H](CCCCN)C(=O)N(C)[C@@H](C)C(=O)N[C@@H](CCCNC(=N)N)C(=O)NCC(N)=O` [Compound 50, C20DA-gGlu3-Sar15-AEPipAc-Tyr-Phe-NMeLeu-Nle-Lys-NMeAla-Arg-Gly-NH2] (HELM PEPTIDE1{[O=C(O)CCCCCCCCCCCCCCCCCCC(=O)[*:2]].[gGlu].[gGlu].[gGlu].[Sar].[Sar].[Sar].[Sar].[Sar].[Sar].[Sar].[Sar].[Sar].[Sar].[Sar].[Sar].[Sar].[Sar].[Sar].[O=C(CN1CCN(CCN[*:1])CC1)[*:2]].Y.F.[meL].[Nle].K.[meA].R.G.[am]}$$$$V2.0), the EC50 in experiment [1] is above 1000 nM; in experiment [2], 23 nM; in experiment [3], 69.9 nM.
The corresponding values for `CCCC[C@H](NC(=O)[C@H](CC(C)C)N(C)C(=O)[C@H](Cc1ccccc1)NC(=O)[C@H](Cc1ccc(O)cc1)NC(=O)CN1CCN(CCNC(=O)CN(C)C(=O)CN(C)C(=O)CN(C)C(=O)CN(C)C(=O)CN(C)C(=O)CN(C)C(=O)CN(C)C(=O)CN(C)C(=O)CN(C)C(=O)CN(C)C(=O)CN(C)C(=O)CN(C)C(=O)CN(C)C(=O)CN(C)C(=O)CN(C)C(=O)CC[C@H](NC(=O)CC[C@H](NC(=O)CC[C@H](NC(=O)CCCCCCCCCCCCCCCCC(=O)O)C(=O)O)C(=O)O)C(=O)O)CC1)C(=O)N[C@@H](Cc1c[nH]cn1)C(=O)N1CCC[C@H]1C(=O)N[C@@H](CCCNC(=N)N)C(=O)NCC(N)=O` [Compound 51, C18DA-gGlu3-Sar15-AEPipAc-Tyr-Phe-NMeLeu-Nle-His-Pro-Arg-Gly-NH2] (HELM PEPTIDE1{[O=C(O)CCCCCCCCCCCCCCCCC(=O)[*:2]].[gGlu].[gGlu].[gGlu].[Sar].[Sar].[Sar].[Sar].[Sar].[Sar].[Sar].[Sar].[Sar].[Sar].[Sar].[Sar].[Sar].[Sar].[Sar].[O=C(CN1CCN(CCN[*:1])CC1)[*:2]].Y.F.[meL].[Nle].H.P.R.G.[am]}$$$$V2.0) are above 1000 nM, 19 nM and 112 nM.
The corresponding values for `CCCC[C@H](NC(=O)[C@H](CC(C)C)N(C)C(=O)[C@H](Cc1ccccc1)NC(=O)[C@H](Cc1ccc(O)cc1)NC(=O)CN1CCN(CCNC(=O)CN(C)C(=O)CN(C)C(=O)CN(C)C(=O)CN(C)C(=O)CN(C)C(=O)CN(C)C(=O)CN(C)C(=O)CN(C)C(=O)CN(C)C(=O)CN(C)C(=O)CN(C)C(=O)CN(C)C(=O)CN(C)C(=O)CN(C)C(=O)CN(C)C(=O)CC[C@H](NC(=O)CC[C@H](NC(=O)CC[C@H](NC(=O)CCCCCCCCCCCCCCCCC(=O)O)C(=O)O)C(=O)O)C(=O)O)CC1)C(=O)N(C)[C@@H](CCCNC(=N)N)C(=O)N1CCC[C@H]1C(=O)N[C@@H](CCCNC(=N)N)C(=O)NCC(N)=O` [Compound 52, C18DA-gGlu3-Sar15-AEPipAc-Tyr-Phe-NMeLeu-Nle-NMeArg-Pro-Arg-Gly-NH2] (HELM PEPTIDE1{[O=C(O)CCCCCCCCCCCCCCCCC(=O)[*:2]].[gGlu].[gGlu].[gGlu].[Sar].[Sar].[Sar].[Sar].[Sar].[Sar].[Sar].[Sar].[Sar].[Sar].[Sar].[Sar].[Sar].[Sar].[Sar].[O=C(CN1CCN(CCN[*:1])CC1)[*:2]].Y.F.[meL].[Nle].[meR].P.R.G.[am]}$$$$V2.0) are 200 nM, 1.4 nM and 6.4 nM.
Regarding `CCCC[C@H](NC(=O)[C@H](CC(C)C)N(C)C(=O)[C@H](Cc1ccccc1)NC(=O)[C@H](Cc1ccc(O)cc1)NC(=O)CN1CCN(CCNC(=O)CN(C)C(=O)CN(C)C(=O)CN(C)C(=O)CN(C)C(=O)CN(C)C(=O)CN(C)C(=O)CN(C)C(=O)CN(C)C(=O)CN(C)C(=O)CN(C)C(=O)CN(C)C(=O)CN(C)C(=O)CN(C)C(=O)CN(C)C(=O)CN(C)C(=O)CC[C@H](NC(=O)CC[C@H](NC(=O)CC[C@H](NC(=O)CCCCCCCCCCCCCCCCC(=O)O)C(=O)O)C(=O)O)C(=O)O)CC1)C(=O)N(C)[C@@H](CCCNC(=N)N)C(=O)N(C)[C@@H](C)C(=O)N[C@@H](CCCNC(=N)N)C(=O)NCC(N)=O` [Compound 53, C18DA-gGlu3-Sar15-AEPipAc-Tyr-Phe-NMeLeu-Nle-NMeArg-NMeAla-Arg-Gly-NH2] (HELM PEPTIDE1{[O=C(O)CCCCCCCCCCCCCCCCC(=O)[*:2]].[gGlu].[gGlu].[gGlu].[Sar].[Sar].[Sar].[Sar].[Sar].[Sar].[Sar].[Sar].[Sar].[Sar].[Sar].[Sar].[Sar].[Sar].[Sar].[O=C(CN1CCN(CCN[*:1])CC1)[*:2]].Y.F.[meL].[Nle].[meR].[meA].R.G.[am]}$$$$V2.0), the EC50 in experiment [1] was found to be 1300 nM; in experiment [2] it was 4 nM; in experiment [3], 24.9 nM.
The corresponding values for `CCCC[C@H](NC(=O)[C@H](CC(C)C)N(C)C(=O)[C@H](Cc1ccccc1)NC(=O)[C@H](Cc1ccc(O)cc1)NC(=O)CN1CCN(CCNC(=O)CN(C)C(=O)CN(C)C(=O)CN(C)C(=O)CN(C)C(=O)CN(C)C(=O)CN(C)C(=O)CN(C)C(=O)CN(C)C(=O)CN(C)C(=O)CN(C)C(=O)CN(C)C(=O)CN(C)C(=O)CN(C)C(=O)CN(C)C(=O)CN(C)C(=O)CC[C@H](NC(=O)CC[C@H](NC(=O)CC[C@H](NC(=O)CCCCCCCCCCCCCCCCC(=O)O)C(=O)O)C(=O)O)C(=O)O)CC1)C(=O)N[C@@H](Cc1cccnc1)C(=O)N1CCC[C@H]1C(=O)N[C@@H](CCCNC(=N)N)C(=O)NCC(N)=O` [Compound 54, C18DA-gGlu3-Sar15-AEPipAc-Tyr-Phe-NMeLeu-Nle-3Pal-Pro-Arg-Gly-NH2] ({C18 diacid-γGlu-γGlu-γGlu}-[Sar][Sar][Sar][Sar][Sar][Sar][Sar][Sar][Sar][Sar][Sar][Sar][Sar][Sar][Sar][Pipz(1-CH2CO,4-CH2CH2NH)]YF[NMeL][Nle][3Pal]PRG-NH2) are above 1000 nM, 28 nM and 122 nM.
For the molecule `CCCC[C@H](NC(=O)[C@H](CC(C)C)N(C)C(=O)[C@H](Cc1ccccc1)NC(=O)[C@H](Cc1ccc(O)cc1)NC(=O)CN1CCN(CCNC(=O)CN(C)C(=O)CN(C)C(=O)CN(C)C(=O)CN(C)C(=O)CN(C)C(=O)CN(C)C(=O)CN(C)C(=O)CN(C)C(=O)CN(C)C(=O)CN(C)C(=O)CN(C)C(=O)CN(C)C(=O)CN(C)C(=O)CN(C)C(=O)CN(C)C(=O)CC[C@H](NC(=O)CC[C@H](NC(=O)CC[C@H](NC(=O)CCCCCCCCCCCCCCCCC(=O)O)C(=O)O)C(=O)O)C(=O)O)CC1)C(=O)N[C@@H](Cc1c[nH]cn1)C(=O)N(C)[C@@H](C)C(=O)N[C@@H](CCCNC(=N)N)C(=O)NCC(N)=O` [Compound 55, C18DA-gGlu3-Sar15-AEPipAc-Tyr-Phe-NMeLeu-Nle-His-NMeAla-Arg-Gly-NH2] (HELM PEPTIDE1{[O=C(O)CCCCCCCCCCCCCCCCC(=O)[*:2]].[gGlu].[gGlu].[gGlu].[Sar].[Sar].[Sar].[Sar].[Sar].[Sar].[Sar].[Sar].[Sar].[Sar].[Sar].[Sar].[Sar].[Sar].[Sar].[O=C(CN1CCN(CCN[*:1])CC1)[*:2]].Y.F.[meL].[Nle].H.[meA].R.G.[am]}$$$$V2.0), the EC50 in experiment [1] is above 1000 nM; in experiment [2] it was 29 nM; in experiment [3], 294 nM.
With `CCCC[C@H](NC(=O)[C@H](CC(C)C)N(C)C(=O)[C@H](Cc1ccccc1)NC(=O)[C@H](Cc1ccc(O)cc1)NC(=O)CN1CCN(CCNC(=O)CN(C)C(=O)CN(C)C(=O)CN(C)C(=O)CN(C)C(=O)CN(C)C(=O)CN(C)C(=O)CN(C)C(=O)CN(C)C(=O)CN(C)C(=O)CN(C)C(=O)CN(C)C(=O)CN(C)C(=O)CN(C)C(=O)CN(C)C(=O)CN(C)C(=O)CC[C@H](NC(=O)CC[C@H](NC(=O)CC[C@H](NC(=O)CCCCCCCCCCCCCCCCC(=O)O)C(=O)O)C(=O)O)C(=O)O)CC1)C(=O)N[C@@H](Cc1ccccn1)C(=O)N1CCC[C@H]1C(=O)N[C@@H](CCCNC(=N)N)C(=O)NCC(N)=O` [Compound 56, C18DA-gGlu3-Sar15-AEPipAc-Tyr-Phe-NMeLeu-Nle-2Pal-Pro-Arg-Gly-NH2] ({C18 diacid-γGlu-γGlu-γGlu}-[Sar][Sar][Sar][Sar][Sar][Sar][Sar][Sar][Sar][Sar][Sar][Sar][Sar][Sar][Sar][Pipz(1-CH2CO,4-CH2CH2NH)]YF[NMeL][Nle][2Pal]PRG-NH2), the EC50 was above 1000 nM in experiment [1], 72 nM in experiment [2] and 432 nM in experiment [3].

As usually defined, the EC50 is the midpoint of the concentration-response curve.
